Laboratory results published in patent US20080207728A1, “BICYCLIC ACYLTRYPTOPHANOLS” (priority 2006, published 2008).

Biological target: T1, human FSH receptor (Homo sapiens, UniProt P23945)
T1 construct: expressed in transfected cells; host or cells: CHO cells (hFSHR clone 16)
T1 sequence (P23945 18-695): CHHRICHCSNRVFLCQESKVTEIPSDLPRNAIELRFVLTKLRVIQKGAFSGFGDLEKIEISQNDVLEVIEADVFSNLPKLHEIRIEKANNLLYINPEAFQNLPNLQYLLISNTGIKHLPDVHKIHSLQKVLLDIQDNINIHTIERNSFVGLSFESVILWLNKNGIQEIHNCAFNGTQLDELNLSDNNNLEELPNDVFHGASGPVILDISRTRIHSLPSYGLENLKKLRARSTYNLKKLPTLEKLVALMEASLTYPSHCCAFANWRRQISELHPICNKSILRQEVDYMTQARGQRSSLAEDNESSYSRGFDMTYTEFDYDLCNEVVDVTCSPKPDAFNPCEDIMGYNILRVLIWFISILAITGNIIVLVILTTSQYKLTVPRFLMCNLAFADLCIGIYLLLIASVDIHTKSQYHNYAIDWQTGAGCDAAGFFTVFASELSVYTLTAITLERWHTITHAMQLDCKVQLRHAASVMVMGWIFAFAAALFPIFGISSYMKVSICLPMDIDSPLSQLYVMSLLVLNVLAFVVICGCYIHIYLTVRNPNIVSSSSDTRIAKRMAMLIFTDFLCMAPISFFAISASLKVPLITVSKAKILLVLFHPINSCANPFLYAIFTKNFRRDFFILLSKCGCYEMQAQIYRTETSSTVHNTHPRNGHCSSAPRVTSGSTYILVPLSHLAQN
Experiment: HTRF assay for measuring cAMP in cells (FSH antagonism)
Format: cell-based
Details: Table 1; hFSHR clone 16 cells (CHO cells stably transfected with the human FSH receptor), in the presence of 1e-9 mol/l hFSH, 37° C. for 2 h; read-out: IC50 (FSH-antagonistic effect in the HTRF assay)
Method: HTRF Assay for Measuring cAMP in Cells
The method is based on a competitive immunoassay between native cAMP, which has been produced by the cells, and cAMP which is labelled with XL665. The tracer binding was visualized by a monoclonal antibody, anti-cAMP labelled with cryptate [HTRF=homogeneous time-resolved fluorescence].
The specific signal is inversely proportional to the cAMP concentration of the samples employed.
The 665 nm/620 nm fluorescence ratio was evaluated.
The following material was used: 96-well plates for the tissue culture, 96-well plates with black edge and black base (e.g. Fluotrac 600 from Greiner), 96-well plates for the substance dilutions of polypropylene and cAMP Femtomolar (4000 wells Kit, CIS Bio International # 62AM1PEC).
The following reagents were used: BSA (bovine serum albumin) Fraction V protease-free, IBMX (3-isobutyl-1-methylxanthine), hFSH (human follicle stimulating hormone), Triton X-100 analytical grade, potassium fluoride analytical grade, G 418 (Geneticin) and Accutase.
Buffer 1 (washing and testing buffer) contained PBS, 1 mM CaCl2, 1 mM MgCl2, 0.2% glucose; 0.1% BSA, 1 mM IBMX.
Buffer 2 (2× lysis buffer) contained 1% Triton X-100 in PBS (without CaCl2 and MgCl2).
Buffer 3 (assay buffer) contained 50 mM potassium phosphate buffer (pH 7.0); 800 mM potassium fluoride; 0.2% BSA (always added fresh).
On day 1, the cells were seeded in 96-well plates (3×10^4 cells per well hFSHR clone 16 cells (CHO cells stably transfected with the human FSH receptor in 150 μl of medium).
The next day, test substance dilutions were made up. For this purpose, all the substances were diluted in ice-cold buffer 1 (with or without hFSH), and the substance dilutions were placed on ice until applied to the cells.
The cell supernatant was then aspirated off, and the cells were washed 2× with 200 μl of buffer 1. The cells were treated with 60 μl of the appropriate substance concentrations at 37° C. for 2 h. The cells were then lysed with 60 μl of buffer 2 (put onto the supernatant) (on a plate shaker at RT for 30 min).
The test conjugates (XL-665 and anti-cAMP cryptate) were diluted in buffer 3 in accordance with the manufacturers' information. The actual mixture for measurement was pipetted into a black 96-well plate (in each case 15 μl of the cell lysate diluted with 35 μl of buffer 1; firstly 25 μl of XL-665 conjugate were pipetted and, after 10 min, 25 μl of the anti-cAMP cryptate were added). This is followed by incubation at RT for 90 minutes. The measurement was carried out in a PheraStar (BMG).
Tissue Culture Conditions
Dose-effect curve (hFSH) for the human receptor: 1e-8, 3e-9, 1 e-9, 3e-10, 1 e-10, 3e-11, 1e-11, 3e-12 mol/l.
The test substances were employed in suitable dilutions in the absence (test for agonism) and in the presence of 1e-9 mol/l hFSH.
The values of the well ratio were averaged and then entered directly in SigmaPlot versus the concentrations. The maximum and minimum values were determined for each plate, and half the difference is to be regarded as IC50.

Row | Compound | IC50
1 | CNC(=O)c1cccc(C#Cc2cc3c(c(C(=O)N[C@@H](CO)Cc4c[nH]c5ccccc45)c2)OC(C)(C)C=C3)c1 [Example 11, 2,2-Dimethyl-6-(3-methylcarbamoyl-phenylethynyl)-2H-chromene-8-carboxylic acid [(R)-1-hydroxymethyl-2-(1H-indol-3-yl)-ethyl]-amide] | 30 nM
2 | O=C(N[C@@H](CO)Cc1c[nH]c2ccccc12)c1cc(-c2ccc3c(c2)OCO3)cc2c1OCC2 [Example 23, 5-Benzo[1,3]dioxol-5-yl-2,3-dihydro-benzofuran-7-carboxylic acid [(R)-1-hydroxymethyl-2-(1H-indol-3-yl)-ethyl]-amide] | 450 nM
3 | O=C(N[C@@H](CO)Cc1c[nH]c2ccccc12)c1cc(-c2ccc3ccccc3c2)cc2c1OCC2 [Example 43, 5-Naphthalen-2-yl-2,3-dihydro-benzofuran-7-carboxylic acid [(R)-1-hydroxymethyl-2-(1H-indol-3-yl)-ethyl]-amide] | 4000 nM
4 | O=C(N[C@@H](CO)Cc1c[nH]c2ccccc12)c1cc(-c2ccc(O)cc2)cc2c1OCC2 [Example 51, 5-(4-Hydroxy-phenyl)-2,3-dihydro-benzofuran-7-carboxylic acid [(R)-1-hydroxymethyl-2-(1H-indol-3-yl)-ethyl]-amide] | 700 nM
5 | CC(=O)c1cccc(-c2cc3c(c(C(=O)N[C@@H](CO)Cc4c[nH]c5ccccc45)c2)OCC3)c1 [Example 56, 5-(3-Acetyl-phenyl)-2,3-dihydro-benzofuran-7-carboxylic acid [(R)-1-hydroxymethyl-2-(1H-indol-3-yl)-ethyl]-amide] | 2000 nM
6 | CNC(=O)c1ccc(-c2cc3c(c(C(=O)N[C@@H](CO)Cc4c[nH]c5ccccc45)c2)OCC3)cc1 [Example 65, 5-(4-Methylcarbamoyl-phenyl)-2,3-dihydro-benzofuran-7-carboxylic acid [(R)-1-hydroxymethyl-2-(1H-indol-3-yl)-ethyl]-amide] | 2000 nM
7 | N#CCc1ccc(-c2cc3c(c(C(=O)N[C@@H](CO)Cc4c[nH]c5ccccc45)c2)OCC3)cc1 [Example 73, 5-(4-Cyanomethyl-phenyl)-2,3-dihydro-benzofuran-7-carboxylic acid [(R)-1-hydroxymethyl-2-(1H-indol-3-yl)-ethyl]-amide] | 2000 nM
8 | Cc1cc(C)cc(-c2cc3c(c(C(=O)N[C@@H](CO)Cc4c[nH]c5ccccc45)c2)OCC3)c1 [Example 78, 5-(3,5-Dimethyl-phenyl)-2,3-dihydro-benzofuran-7-carboxylic acid [(R)-1-hydroxymethyl-2-(1H-indol-3-yl)-ethyl]-amide] | 3000 nM
9 | CNC(=O)c1cc(F)cc(-c2cc3c(c(C(=O)N[C@@H](CO)Cc4c[nH]c5ccccc45)c2)OCC3)c1 [Example 82, 5-(3-Fluoro-5-methylcarbamoyl-phenyl)-2,3-dihydro-benzofuran-7-carboxylic acid [(R)-1-hydroxymethyl-2-(1H-indol-3-yl)-ethyl]-amide] | 4000 nM
10 | O=C(NC(CO)Cc1c[nH]c2cc(F)ccc12)c1cc(/C=C/c2ccccc2)cc2c1OCCCC2 (centres unmarked) [Example 83, 7-((E)-Styryl)-2,3,4,5-tetrahydro-benzo[b]oxepine-9-carboxylic acid [2-(6-fluoro-1H-indol-3-yl)-1-hydroxymethyl-ethyl]-amide] | 350 nM
11 | CNC(=O)c1ccc(C#Cc2cc3c(c(C(=O)NC(CO)Cc4c[nH]c5cc(F)ccc45)c2)OCCCC3)cc1 (centres unmarked) [Example 84, 7-(4-Methylcarbamoyl-phenylethynyl)-2,3,4,5-tetrahydro-benzo[b]oxepine-9-carboxylic acid [2-(6-fluoro-1H-indol-3-yl)-1-hydroxymethyl-ethyl]-amide] | 50 nM
12 | COc1ccccc1C#Cc1cc2c(c(C(=O)N[C@@H](CO)Cc3c[nH]c4ccccc34)c1)OCCO2 [Example 85, 7-(2-Methoxy-phenylethynyl)-2,3-dihydro-benzo[1,4]dioxine-5-carboxylic acid [(R)-1-hydroxymethyl-2-(1H-indol-3-yl)-ethyl]-amide] | 200 nM
13 | CNC(=O)c1cc(F)cc(-c2cc3c(c(C(=O)NC(CO)Cc4c[nH]c5cccc(C)c45)c2)OCCCC3)c1 (centres unmarked) [Example 86, 7-(3-Fluoro-5-methylcarbamoyl-phenyl)-2,3,4,5-tetrahydro-benzo[b]oxepine-9-carboxylic acid [2-hydroxy-1-(4-methyl-1H-indol-3-ylmethyl)-ethyl]-amide] | 1500 nM
14 | CNC(=O)c1ccc(-c2cc3c(c(C(=O)NC(CO)Cc4c[nH]c5cccc(F)c45)c2)OC(C)(C)C=C3)cc1Cl (centres unmarked) [Example 88, 6-(3-Chloro-4-methylcarbamoyl-phenyl)-2,2-dimethyl-2H-chromene-8-carboxylic acid [2-(4-fluoro-1H-indol-3-yl)-1-hydroxymethyl-ethyl]-amide] | 30 nM

Same assay, conditions: Table 2; hFSHR clone 16 cells (CHO cells stably transfected with the human FSH receptor), in the presence of 1e-9 mol/l hFSH, 37° C. for 2 h; read-out: IC50 (FSH-antagonistic effect in the HTRF assay)

Row | Compound | IC50
15 | CNC(=O)c1ccc(-c2cc3c(c(C(=O)NC(CO)Cc4c[nH]c5ccc(F)cc45)c2)OC(C)(C)C=C3)cc1Cl (centres unmarked) [Example 89, 6-(3-Chloro-4-methylcarbamoyl-phenyl)-2,2-dimethyl-2H-chromene-8-carboxylic acid [2-(5-fluoro-1H-indol-3-yl)-1-hydroxymethyl-ethyl]-amide] | 20 nM
16 | CNC(=O)c1cccc(C#Cc2cc3c(c(C(=O)NC(CO)Cc4c[nH]c5cc(F)ccc45)c2)OCCCC3)c1 (centres unmarked) [Example 91, 7-(3-Methylcarbamoyl-phenylethynyl)-2,3,4,5-tetrahydro-benzo[b]oxepine-9-carboxylic acid [2-(6-fluoro-1H-indol-3-yl)-1-hydroxymethyl-ethyl]-amide] | 60 nM
17 | O=C(N[C@@H](CO)Cc1c[nH]c2ccccc12)c1cc(-c2ccc(-c3ccccc3)cc2)cc2c1OCCO2 [Example 92, 7-Biphenyl-4-yl-2,3-dihydro-benzo[1,4]dioxine-5-carboxylic acid [(R)-1-hydroxymethyl-2-(1H-indol-3-yl)-ethyl]-amide] | 500 nM
18 | O=C(N[C@@H](CO)Cc1c[nH]c2ccccc12)c1cc(-c2ccc(CO)cc2)cc2c1OCCO2 [Example 96, 7-(4-Hydroxymethyl-phenyl)-2,3-dihydro-benzo[1,4]dioxine-5-carboxylic acid [(R)-1-hydroxymethyl-2-(1H-indol-3-yl)-ethyl]-amide] | 1000 nM
19 | CSc1cccc(-c2cc3c(c(C(=O)N[C@@H](CO)Cc4c[nH]c5ccccc45)c2)OCCO3)c1 [Example 100, 7-(3-Methylsulfanyl-phenyl)-2,3-dihydro-benzo[1,4]dioxine-5-carboxylic acid [(R)-1-hydroxymethyl-2-(1H-indol-3-yl)-ethyl]-amide] | 900 nM
20 | N#Cc1cc(-c2cc3c(c(C(=O)N[C@@H](CO)Cc4c[nH]c5ccccc45)c2)OCCO3)ccc1F [Example 104, 7-(3-Cyano-4-fluoro-phenyl)-2,3-dihydro-benzo[1,4]dioxine-5-carboxylic acid [(R)-1-hydroxymethyl-2-(1H-indol-3-yl)-ethyl]-amide] | 1000 nM
